The EC50 is the concentration needed to bring the measured effect to its halfway point. Lower therefore signals a more potent agent.

The target in this test is T1, ERR1 (also known as ERR-α or ERR-1) (Homo sapiens, UniProt P11474).
T1 construct: the ^6His-tagged-ERR1 LBD
T1 sequence (P11474 193-421 limits assumed): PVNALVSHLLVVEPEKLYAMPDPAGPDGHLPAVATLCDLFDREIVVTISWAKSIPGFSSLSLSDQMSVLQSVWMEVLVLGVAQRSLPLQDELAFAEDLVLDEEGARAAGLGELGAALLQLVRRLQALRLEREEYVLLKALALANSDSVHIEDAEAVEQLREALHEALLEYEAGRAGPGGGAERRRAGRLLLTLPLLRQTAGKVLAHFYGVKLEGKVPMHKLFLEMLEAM
Briefly: TR-FRET assay: disruption of co-activator peptide binding to ERR1 LBD. The test is classed as biochemical. Conditions: 6His-tagged ERR1 LBD 6 nM, GST-SRC-2 peptide 6 nM, 25° C., 4-18 hours; average of 3 independent experiments. The essentials:
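The 6His-ERR1 LBD and a GST-hSRC2 co-activator peptide were detected by α-GST Eu cryptate and α-6His-XL665 TR-FRET. Buffer was 25 mM Tris pH 8, 2.5 mM Hepes, 20 mM KCl, 1 mM DTT, 0.05 mg/mL BSA, equilibrated 4-18 h at 25° C. Dose-response curves were fitted hyperbolically and averaged over 3 independent experiments.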
For orientation: In TR-FRET formats the signal depends on donor and acceptor labels being close together.

Molecule `CCOc1cc(/C=C2\SC(N3CCNC(=O)C3)=NC2=O)ccc1Oc1ccc(C#N)cc1C(F)(F)F` [Example 57, 4-{2-Ethoxy-4-[4-oxo-2-(3-oxo-piperazin-1-yl)-4H-thiazol-5-ylidenemethyl]-phenoxy}-3-trifluoromethyl-benzonitrile] came in with a 50% effective concentration (EC50) of 39 nM.
Under `COc1cc(/C=C2\SC(NCc3cccnc3)=NC2=O)ccc1Oc1ccc(C#N)cc1C(F)(F)F` [Compound 19, 4-(2-Methoxy-4-{4-oxo-2-[(pyridin-3-ylmethyl)-amino]-4H-thiazol-5-ylidenemethyl}-phenoxy)-3-trifluoromethyl-benzonitrile] stands 18 nM; under `COc1cc(/C=C2\SC(N3CCNC(=O)C3)=NC2=O)ccc1Oc1ccc(C#N)cc1Cl` [Example 64, 3-Chloro-4-{2-methoxy-4-[4-oxo-2-(3-oxo-piperazin-1-yl)-4H-thiazol-5-ylidenemethyl]-phenoxy}-benzonitrile], 44 nM.
Molecule `O=C1N=C(NCCCN2CCCC2=O)S/C1=C\c1ccc(Oc2ccc(Cl)cc2C(F)(F)F)c(F)c1` [Example 67, 5-[4-(4-Chloro-2-trifluoromethyl-phenoxy)-3-fluoro-benzylidene]-2-[3-(2-oxo-pyrrolidin-1-yl)-propylamino]-thiazol-4-one] displayed an EC50 of 3 nM.
Under `COc1cc(/C=C2\SC(NCc3ccsc3)=NC2=O)ccc1Oc1ccc(C#N)cc1C(F)(F)F` [Example 89, 4-(2-Methoxy-4-{4-oxo-2-[(thiophen-3-ylmethyl)-amino]-4H-thiazol-5-ylidenemethyl}-phenoxy)-3-trifluoromethyl-benzonitrile] stands 25 nM; under `N#Cc1ccc(Oc2ccc(/C=C3\SC(N)=NC3=O)cc2F)c2ccccc12` [Compound 4, 4-[2-Fluoro-4-(2-imino-4-oxo-thiazolidin-5-ylidenemethyl)-phenoxy]-naphthalene-1-carbonitrile], 18 nM.
Under `COc1cc(/C=C2\SC(NCCC(=O)N3CCOCC3)=NC2=O)ccc1Oc1ccc(C#N)cc1C(F)(F)F` [Example 73, 4-{2-Methoxy-4-[2-(3-morpholin-4-yl-3-oxo-propylamino)-4-oxo-4H-thiazol-5-ylidenemethyl]-phenoxy}-3-trifluoromethyl-benzonitrile] stands 13 nM; under `COc1cc(/C=C2\SC(N3CCC(O)C3)=NC2=O)ccc1Oc1ccc(C#N)cc1C(F)(F)F` (stereo not shown) [Example 39, 4-{4-[2-(3-Hydroxy-pyrrolidin-1-yl)-4-oxo-4H-thiazol-5-ylidenemethyl]-2-methoxy-phenoxy}-3-trifluoromethyl-benzonitrile], 9 nM; under `COc1cc(/C=C2\SC(NC[C@H](O)CO)=NC2=O)ccc1Oc1ccc(C#N)cc1C(F)(F)F` [Example 35, 4-{4-[2-(2S,3-Dihydroxy-propylamino)-4-oxo-4H-thiazol-5-ylidenemethyl]-2-methoxy-phenoxy}-3-trifluoromethyl-benzonitrile], 13 nM.
Under `COc1cc(/C=C2\SC(N(C)CC(O)CO)=NC2=O)ccc1Oc1ccc(C#N)cc1Cl` (stereo not shown) [Example 65, 3-Chloro-4-(4-{2-[(2,3-dihydroxy-propyl)-methyl-amino]-4-oxo-4H-thiazol-5-ylidenemethyl}-2-methoxy-phenoxy)-benzonitrile] stands 89 nM; under `COc1cc(/C=C2\SC(NCc3ccccn3)=NC2=O)ccc1Oc1ccc(C#N)cc1C(F)(F)F` [Compound 17, 4-(2-Methoxy-4-{4-oxo-2-[(pyridin-2-ylmethyl)-amino]-4H-thiazol-5-ylidenemethyl}-phenoxy)-3-trifluoromethyl-benzonitrile], 29 nM; under `N#Cc1ccc(Oc2ccc(/C=C3\SC(N)=NC3=O)cc2Cl)c(C(F)(F)F)c1` [Compound 3, 4-[2-Chloro-4-(2-imino-4-oxo-thiazolidin-5-ylidenemethyl)-phenoxy]-3-trifluoromethyl-benzonitrile], 87 nM.
In turn, `COc1cc(/C=C2\SC(NC3CCN(CCO)CC3)=NC2=O)ccc1Oc1ccc(C#N)cc1C(F)(F)F` [Example 111, 4-(4-{2-[1-(2-Hydroxy-ethyl)-piperidin-4-ylamino]-4-oxo-4H-thiazol-5-ylidenemethyl}-2-methoxy-phenoxy)-3-trifluoromethyl-benzonitrile] came in with a concentration for a half-maximal effect (EC50) of 15 nM.
The value for `N#Cc1ccc(Oc2ccc(/C=C3\SC(NCCF)=NC3=O)cc2F)c(C(F)(F)F)c1` [Example 96, 4-{2-Fluoro-4-[2-(2-fluoro-ethylamino)-4-oxo-4H-thiazol-5-ylidenemethyl]-2-fluoro-phenoxy}-3-trifluoromethyl-benzonitrile] was 25 nM; that for `COc1cc(/C=C2\SC(NCCO)=NC2=O)ccc1Oc1ccc(C#N)cc1C(F)(F)F` [Example 32, 4-{4-[2-(2-Hydroxy-ethylamino)-4-oxo-4H-thiazol-5-ylidenemethyl]-2-methoxy-phenoxy}-3-trifluoromethyl-benzonitrile] was 21 nM; that for `N#Cc1ccc(Oc2ccc(/C=C3\SC(NC4CCN(CCO)CC4)=NC3=O)cc2F)c(C(F)(F)F)c1` [Example 112, 4-(2-Fluoro-4-{2-[1-(2-hydroxy-ethyl)-piperidin-4-ylamino]-4-oxo-4H-thiazol-5-ylidenemethyl}-phenoxy)-3-trifluoromethyl-benzonitrile] was 26 nM.
The value for `COc1cc(/C=C2\SC(NCCNC(N)=O)=NC2=O)ccc1Oc1ccc(C#N)cc1C(F)(F)F` [Example 74, (2-{5-[4-(4-Cyano-2-trifluoromethyl-phenoxy)-3-methoxy-benzylidene]-4-oxo-4,5-dihydro-thiazol-2-ylamino}-ethyl)-urea] was 17 nM; that for `N#Cc1ccc(Oc2ccc(/C=C3\SC(N4CCC(O)C4)=NC3=O)cc2F)c(C(F)(F)F)c1` (stereo not shown) [Example 45, 4-{2-Fluoro-4-[2-(3-hydroxy-pyrrolidin-1-yl)-4-oxo-4H-thiazol-5-ylidenemethyl]-phenoxy}-3-trifluoromethyl-benzonitrile] was 39 nM.
`CCOc1cc(/C=C2\SC(N3CC(C(=O)O)C3)=NC2=O)ccc1Oc1ccc(C#N)cc1C(F)(F)F` [Example 55, 1-{5-[4-(4-Cyano-2-trifluoromethyl-phenoxy)-3-ethoxy-benzylidene]-4-oxo-4,5-dihydro-thiazol-2-yl}-azetidine-3-carboxylic acid] registered an EC50 of 16 nM.
Under `COC(=O)C1CCN(C2=NC(=O)/C(=C/c3ccc(Oc4ccc(C#N)cc4C(F)(F)F)c(OC)c3)S2)CC1` [Example 79, 1-{5-[4-(4-Cyano-2-trifluoromethyl-phenoxy)-3-methoxy-benzylidene]-4-oxo-4,5-dihydro-thiazol-2-yl}-piperidine-4-carboxylic acid methyl ester] stands 25 nM; under `COc1cc(/C=C2\SC(NC[C@@H](O)CO)=NC2=O)ccc1Oc1ccc(C#N)cc1C(F)(F)F` [Example 34, 4-{4-[2-(2R,3-Dihydroxy-propylamino)-4-oxo-4H-thiazol-5-ylidenemethyl]-2-methoxy-phenoxy}-3-trifluoromethyl-benzonitrile], 19 nM; under `COC(=O)[C@H](CO)NC1=NC(=O)/C(=C/c2ccc(Oc3ccc(C#N)cc3C(F)(F)F)c(OC)c2)S1` [Example 68, 2-{5-[4-(4-Cyano-2-trifluoromethyl-phenoxy)-3-methoxy-benzylidene]-4-oxo-4,5-dihydro-thiazol-2-ylamino}-3-hydroxy-propionic acid methyl ester], 19 nM.
The value for `COc1cc(/C=C2\SC(NCCCN(C)C)=NC2=O)ccc1Oc1ccc(C#N)cc1C(F)(F)F` [Compound 26, 4-{4-[2-(3-Dimethylamino-propylamino)-4-oxo-4H-thiazol-5-ylidenemethyl]-2-methoxy-phenoxy}-3-trifluoromethyl-benzonitrile] was 13 nM; that for `COC(=O)c1ccc(Oc2ccc(/C=C3\SC(N4CC(C(=O)O)C4)=NC3=O)cc2OC)c(C(F)(F)F)c1` [Example 52, 1-{5-[3-Methoxy-4-(4-methoxycarbonyl-2-trifluoromethyl-phenoxy)-benzylidene]-4-oxo-4,5-dihydro-thiazol-2-yl}-azetidine-3-carboxylic acid] was 2 nM; that for `CCOc1cc(/C=C2\SC(N(CCO)CCO)=NC2=O)ccc1Oc1ccc(C#N)cc1C(F)(F)F` [Example 56, 4-(4-{2-[Bis-(2-hydroxy-ethyl)-amino]-4-oxo-4H-thiazol-5-ylidenemethyl}-2-ethoxy-phenoxy)-3-trifluoromethyl-benzonitrile] was 150 nM.
With `COc1cc(/C=C2\SC(N3CCNC(=O)C3)=NC2=O)ccc1Oc1ccc(C#N)cc1C(F)(F)F` [Compound 21, 4-{2-Methoxy-4-[4-oxo-2-(3-oxo-piperazin-1-yl)-4H-thiazol-5-ylidenemethyl]-phenoxy}-3-trifluoromethyl-benzonitrile], the EC50 is 9 nM. This EC50 lies about 17-fold lower than the previous one.
Under `N#Cc1ccc(Oc2ccc(/C=C3\SC(NCCN4CCNC(=O)C4)=NC3=O)cc2F)c(C(F)(F)F)c1` [Example 99, 4-(2-Fluoro-4-{4-oxo-2-[2-(3-oxo-piperazin-1-yl)-ethylamino]-4H-thiazol-5-ylidenemethyl}-phenoxy)-3-trifluoromethyl-benzonitrile] stands 18 nM; under `COc1cc(/C=C2\SC(NCCCN3CCCC3=O)=NC2=O)ccc1Oc1ccc(C#N)cc1C(F)(F)F` [Compound 22, 4-(2-Methoxy-4-{4-oxo-2-[3-(2-oxo-pyrrolidin-1-yl)-propylamino]-4H-thiazol-5-ylidenemethyl}-phenoxy)-3-trifluoromethyl-benzonitrile], 9 nM.

The values are drawn from US8580832B2, “Substituted phenoxy aminothiazolones as estrogen related receptor-α modulators” (Janssen Pharmaceutica N.V., priority 2007, dated 2013).
